Source: EPA's ToxValDB 9.5 (doi:10.2903/j.efsa.2008.144r)
Converted amounts (≈) assume the structure as drawn.

Assays:
Apis mellifera = details: acute; duration: 48 hours; oral; unspecified; mortality
Bibionidae = details: chronic/long-term; duration: 20 days
Daphnia magna = details: acute; duration: 48 hours; reproduction
Lepomis macrochirus = details: acute; duration: 96 hours; mortality
Oncorhynchus mykiss = details: chronic/long-term; duration: 94 days
Oryctolagus sp. = details: developmental; development
Pleurozium sp. = details: acute; duration: 72 hours; biomass
Zea sp. = details: not reported; other
Aphidius rhopalosiphi = assay: LR50; higher = less toxic; details: not reported; mortality

CC(Cc1ccc(C(C)(C)C)cc1)CN1C[C@@H](C)O[C@@H](C)C1 (stereo partly drawn) [(2R,6S)-Fenpropimorph]
LD50 (Apis mellifera): > 95.6 µg/piece | NOEC (Bibionidae): 0.13 mg/L | LD50 (Colinus virginianus; acute, oral, mortality): > 2000 mg/kg | NOEC (Colinus virginianus; reproduction developmental): > 30.3 mg/kg-day | NOEC (Daphnia magna): 0.024 mg/L | LC50 (Lepomis macrochirus): 2.3 µg/mL (≈ 7.58 µM) | NOEC (Oncorhynchus mykiss): 0.00016 mg/L | NOAEL (Oryctolagus sp.): 15 mg/kg-day | NOEC (Pleurozium sp.): 0.005 mg/L | LD50 (Rattus norvegicus; acute, oral, mortality): 2230 mg/kg | NOAEL (Rattus norvegicus; chronic, duration: 2 years, organ weight): 0.3 mg/kg-day | NOAEC (Rattus norvegicus; reproduction developmental, duration: 24 months, reproduction): 16 mg/kg-day | NOAEL (Rattus norvegicus; subchronic, duration: 90 days, oral, clinical chemistry): 0.7 mg/kg-day | LC50 (Tagia sp.; acute, duration: 14 days, mortality): > 1000 mg/kg | NOEC (Tagia sp.; chronic/long-term): 9.92 mg/kg | LEL (Zea sp.): 1690 g/ha | LR50 (Aphidius rhopalosiphi): 25.7 g/ha
